The test system of assay [1] is DMC1-ssDNA filaments. The assay is described as follows: EMSA, super-shift of DMC1-ssDNA filaments (TEA pH 7.5 + KCl). It counts as biochemical, human. The text has this:
(§1) What is the function of the BRCA2 Ex14-DMC1 interaction? We used electrophoretic mobility shift assays (EMSAs) to determine the impact of BRCA2-binding on DMC1 nucleoprotein filaments. We used two different conditions for nucleoprotein filament assembly. Firstly, a TAE (tris, acetate, EDTA; pH 7.5) buffer that was previously used for RAD51-ssDNA filaments, in which DMC1-ssDNA filaments were partially formed at the canonical ratio of three nucleotides to one protomer (Fig. 3a). Secondly, a TEA (triethanolamine; pH 7.5) + KCl buffer based on previous DMC1 studies[36]–[38], in which DMC1-ssDNA filament formation was more complete at the canonical ratio (Fig. 3b). […] This was noticeable using Ex14 in equimolar amounts (11 μM), and became substantial at a 5-fold stoichiometric excess (55 μM) (Fig. 3b). As the KD of the DMC1-Ex14 interaction is approximately 30 μM (Fig. 2a), the requirement for a stoichiometric excess is likely due to binding being favoured at Ex14 concentrations above the KD.
(§2) To form nucleoprotein filaments, DMC1 and RAD51 was incubated with fluorescent 100-base ssDNA (5’-FAM- […]-3’) at the concentrations indicated in the figures for 30 minutes at 4 °C in reaction buffer. For DMC1, reaction buffer is 25 mM TEA (triethanolamine) pH 7.5, 1 mM ATP, 2 mM MgCl2, 0.1 mg/ml BSA, 2 mM DTT, 200 mM KCl. For RAD51, reaction buffer is 50 mM TEA (triethanolamine), 2 mM ATP, 0.5 mM MgCl2, 2 mM DTT. For assays requiring incomplete nucleoprotein filament assembly, the reaction buffer consisted of 50 mM TAE (tris, acetate, EDTA) pH 7.5, 2 mM ATP, 2 mM MgCl2, 2 mM DTT. In nucleoprotein formation stimulation assays or supershift experiments, BRCA2Ex14 or BRCA2Ex14-AAA were added for a further 30 min at 4 °C. […] Glycerol was added at a final concentration of 3%, and samples were analysed by electrophoresis on a 1% (w/v) (for DMC1) or 0.66% (w/v) (for RAD51) agarose gel in 0.5x TAE pH 8.0 at 20–40 V for ~4 h at 4 °C. DNA was detected by FAM using a Typhoon^TM FLA 9500 (GE Healthcare), with 473 nm laser at excitation wavelength 490 nm and emission wavelength 520 nm, using the LPB filter and a PMT voltage of 500 V. To analyse RAD51 nucleoprotein filaments assembled upon 100-base poly(dT) ssDNA, gels were stained post-run using SYBR^TM Gold Nucleic Acid Gel Stain (Invitrogen) and detected using a Typhoon^TM FLA 9500 (GE Healthcare).
(In general: In EMSA bound probe runs differently from free probe, usually more slowly.)

In assay [2] the test system is DMC1. Conditions: ref [21],[27],[32]; cited from earlier work. The text has this:
The PhePP-binding site of DMC1 is formed by two loops, corresponding to amino-acids 147-153 and 178-183, respectively. The first loop consists of amino-acids 147-GAGGYPG-153 in DMC1 and 148-IDRGGGE-154 in RAD51 (herein referred to as PhePP-binding loop A; Fig. 1d), and is one of the most divergent regions between DMC1 and RAD51 (Supplementary Fig. 4). The second loop consists of amino-acids 178-NVDHDA-183 in DMC1 and 179-GLSGSD-184 in RAD51 (herein referred to as PhePP-binding loop B; Fig. 1e), in which residues V179 (DMC1) and L180 (RAD51) substantially contribute to the PhePP-binding pocket. ...

Assay [3] has as its system DMC1-ssDNA filaments. The assay is described as follows: EMSA, stimulation of DMC1-ssDNA filament formation (TAE pH 7.5). It is filed as biochemical, human. To be noted: TAE pH 7.5.
Text: as §1, §2

Assay [4] deals with DMC1-ssDNA filaments. The assay is described as follows: EMSA, protection of DMC1-ssDNA filaments from BRC4-mediated disruption. To be noted: 10-fold excess of BRC4. It is filed as biochemical, human. The method, then:
Finally, we tested whether binding of BRCA2 Ex14 protects DMC1-ssDNA nucleoprotein filaments from BRC4-mediated disruption (Fig. 3c). […] Further, whilst the core PhePP interaction site is sufficient to stimulate DMC1-ssDNA nucleoprotein filament formation, surrounding amino-acids that are present within Ex14 (but not Ex14-Tr) are necessary to super-shift filaments and confer protection from BRC4-mediated disruption.
as §2

Assay [5] relates to RAD51-ssDNA filaments. The assay is described as follows: EMSA, protection of RAD51-ssDNA filaments from BRC4-mediated disruption (random sequence ssDNA). To be noted: 100-nt random ssDNA; 10-fold excess of Ex27. It is filed as biochemical. As to the method: as §2
In assay [6] the test system is RAD51 L180E-ssDNA (polydT) filaments. The experiment in a line: EMSA, protection of RAD51 L180E-ssDNA (polydT) filaments from BRC4-mediated disruption. It is filed as biochemical. Conditions: 100-nt polydT. As to the method: as §2
Assay [7] concerns RAD51. Conditions: cited from earlier work. The text has this: BRCA2 interacts with RAD51 and DMC1 recombinases through BRC repeats and PhePP motifs (Fig. 1a)[21],[25]–[28]. The eight BRC repeats, located within BRCA2’s central exon 11 region, bind to RAD51 and DMC1 with various affinities[25],[29],[30]. […] The first loop consists of amino-acids 147-GAGGYPG-153 in DMC1 and 148-IDRGGGE-154 in RAD51 (herein referred to as PhePP-binding loop A; Fig. 1d), and is one of the most divergent regions between DMC1 and RAD51 (Supplementary Fig. 4). The second loop consists of amino-acids 178-NVDHDA-183 in DMC1 and 179-GLSGSD-184 in RAD51 (herein referred to as PhePP-binding loop B; Fig. 1e), in which residues V179 (DMC1) and L180 (RAD51) substantially contribute to the PhePP-binding pocket. ...

The test system of assay [8] is RAD51 L180E-ssDNA filaments. The experiment in a line: EMSA, protection of RAD51 L180E-ssDNA filaments from BRC4-mediated disruption (random sequence ssDNA). It is filed as biochemical. Conditions: 100-nt random ssDNA. The method, then:
as §2

We go through two substances from paper PMC11436757, “BRCA2 stabilises RAD51 and DMC1 nucleoprotein filaments through a conserved interaction mode” (Nature Communications, 2024).

“Also recorded” adds a separate entry of the source. No end group written: not given here.

Regarding “ATRNEKMRHLITTGRPTKVFVPPFKTKSHFHRVE [Ex14]”, the “super-shift of pre-formed DMC1-ssDNA filaments” value in assay [1] (5-fold stoichiometric excess (55 μM)) is reported as “substantial”; in assay [1] (100-nt random ssDNA, 4 °C), “inducing a super-shift; also recorded: induced a super-shift”; in assay [1] (equimolar (11 μM)), “noticeable”. For the same substance, in assay [2], the “selective binding to DMC1” value is given as “bind selectively to DMC1”. For the same substance, the “stimulation of DMC1-ssDNA filament formation upon changing order of addition” value in assay [3] (Ex14 added after DMC1-ssDNA, with DMC1 prior to ssDNA, or with ssDNA prior to DMC1) is “same degree; also recorded: same stimulation; also recorded: order of addition did not affect”. Further, in assay [3] (100-nt random ssDNA, 4 °C, canonical ratio of three nucleotides to one protomer, equimolar for Ex14), the “stimulation of DMC1-ssDNA nucleoprotein filament formation” value is “stimulates DMC1-ssDNA nucleoprotein filament assembly, achieving complete DMC1-ssDNA filament formation; also recorded: promoted the formation of DMC1-ssDNA filaments”. The “protection of DMC1-ssDNA filaments from BRC4-mediated disruption” value in assay [4] (5-fold excess (55 μM) peptide) is “complete protection”; in assay [4] (TEA pH 7.5 + KCl, Ex14 10-fold stoichiometric excess (110 μM)), “protected against BRC4-mediated disruption; also recorded: protected filaments from disruption”; in assay [4] (equimolar (11 μM) peptide) it was “some protection”.

Turning to “Ex27: BRCA2 exon 27 PhePP peptide, amino acids 3270-3315 (ALDFLSRLPLPPPVSPICTFVSPAAQKAFQPPRSCGTKYETPIKKK; UniProt P51587 3270-3315, looked up, fragment)”, the “protection of RAD51-ssDNA filaments from BRC4-mediated disruption” value in assay [5] is “less complete; also recorded: not complete; also recorded: protected against BRC4-mediated disruption”. The “protection of RAD51 L180E-ssDNA (polydT) filaments from BRC4-mediated disruption” value in assay [6] is on record as “not protected; also recorded: almost entirely lost; also recorded: abrogated”. For the same substance, the “selective binding to RAD51” value in assay [7] (ref [21],[27],[32]) is “bind selectively to DMC1 and RAD51, respectively”. For the same substance, the “binding to RAD51 filaments versus monomers” value in assay [7] (ref [33],[34]) is recorded as “binds to RAD51 filaments, rather than monomers”. The “protection of RAD51 L180E-ssDNA filaments from BRC4-mediated disruption” value in assay [8] is reported as “not protected; also recorded: abrogated”.
